Test results published in patent US11980633B2, “Method for treating cancer using a combination of DNA-damaging agents and DNA-PK inhibitors” (Vertex Pharmaceuticals Incorporated, priority 2016, dated 2024).

Tested on: pKAP1 and pH2AX levels in MDA-MB-436 and MDA-MB-468 breast cancer cells
Test: pKAP1 and pH2AX immunoblot, Compound B-2 and doxorubicin in MDA-MB-436 and MDA-MB-468 cells
Assay type: cell-based, human
Conditions: 1 μM Compound B-2 + 500 nM doxorubicin; at 8 h
Experimental: Materials and Methods. The human cancer cell lines A549 (CCL-185), DU4475 (HTB-123), MDA-MB-436 (HTB-130), and MDA-MB-468 (HTB-132) were obtained from American Type Culture Collection (ATCC; Manassas, VA). A 10 mM stock solution of Compound B-1 or Compound B-2 was prepared in DMSO and stored at −20° C. Etoposide and doxorubicin were purchased from Sigma-Aldrich (St. Louis, MO).
The A549 human lung cancer cell line was purchased from ATCC and was cultured in DMEM supplemented with 10% fetal bovine serum, 1× non-essential amino acids and 1× Penicillin/Streptomycin (complete medium). Cells were maintained at a subconfluent state by passaging every 2-3 days. Human breast cancer cells lines DU4475, MDA-MB-436, and MDA-MB-468 were purchased from ATCC and cultured in DMEM supplemented with 10% fetal bovine serum, 1× Glutamax and Penicillin/Streptomycin. Cells were maintained at a subconfluent state by passaging every 2-3 days.
Compound B-1 and Compound B-2 used in these experiments were not prepared as a co-crystals.
Breast cancer cell lines grown in 24-well (Costar, catalog #3526) or 6-well (Costar, catalog #3516) tissue culture plates to 70-80% confluence were pre-incubated with 1 μM Compound B-2 or DMSO for 15 min. Doxorubicin was added to a final concentration of either 100 nM or 500 nM from a 1000× stock prepared in DMSO. Cells were then incubated for the indicated amount of time and harvested for analysis.
Cell Lysis and Western Blot Analysis. […]
To determine that enhancement of DNA damage by concurrent treatment of cells with Compound B-2 and doxorubicin was not specific to DU4475 cells, two additional breast cancer cell lines, MDA-MB-436 and MDA-MB-468, were also pre-incubated with 1 μM Compound B-2 for 15 min, followed by addition of 500 nM doxorubicin. Cells were harvested at various time points following doxorubicin addition and analyzed for levels of pKAP1 and pH2AX by immunoblotting.

With `[2H]c1nc(C)nc([2H])c1-c1cc(NC[C@@H](C)c2cccc3c(C(=O)NC)ccnc23)ncn1` [Compound B-2] the “pH2AX level, max enhancement vs doxorubicin alone” value was 1.5 fold and the “pKAP1 level, max enhancement vs doxorubicin alone” value was 3.5-4 fold.
